In article PMC4926077, “Synthesis of Pelorol and Its Analogs and Their Inhibitory Effects on Phosphatidylinositol 3-Kinase” (Marine Drugs, 2016):
Where two headings read alike, the source gives them in different places.

Assays:
MCF-7 = assay: Antiproliferative CCK8 assay, MCF-7; format: cell-based; settings: Homo sapiens, MCF7, 72 h incubation, average of three replicates, read-out: Relative IC50 against tumor cell line MCF-7
Method: (§1) The following cell lines, MCF-7, SK-BR-3, K562, Hela, MOLT-4, DU145, U937, and PC3 were purchased from Shanghai Cell Bank, Chinese Academy of Sciences. The cells were maintained at 37 °C in a 5% CO2 incubator in DMEM (Gibco, Invitrogen, Carlsbad, CA, USA) or RPMI1640 (Gibco, Invitrogen) containing 10% FBS. Cell proliferation was determined by CCK8 assay (DOjinDo, Kyoto, Japan). Cells were seeded at a density of 800–1000 cells/well in 384 well plates and treated with solvent control or various concentration of compounds. After 72 h incubation, CCK8 reagent was added and absorbance was measured at 450 nm by using Envision 2104 multi-label Reader (Perkin Elmer, Waltham, MA, USA). Dose-response curves were plotted to determine the IC50 values using Prism 5.0 (Graph Pad software Inc., San Diego, CA, USA).

Hela = assay: Antiproliferative CCK8 assay, Hela; format: cell-based; settings: Homo sapiens, 72 h incubation, average of three replicates, read-out: Relative IC50 against tumor cell line Hela
Method: as §1

MOLT-4 = assay: Antiproliferative CCK8 assay, MOLT-4; format: cell-based; settings: Homo sapiens, leukemia cell, 72 h incubation, average of three replicates, read-out: Relative IC50 against tumor cell line MOLT-4
Method: as §1

PI3Kα = PI3Kα (Homo sapiens, UniProt P42336); assay: PI3K enzymatic activity assay (Kinase-Glo), PI3Kα; format: biochemical
Method: (§2) We assumed that electronic effects might influence the inhibitory activity of compounds against PI3Kα. […] PI3K reactions were performed in 50 mM HEPES at pH 7.5 with 1 mM EGTA, 100 mM NaCl, 3 mM MgCl2, 2 mM DTT, and 0.03% CHAPS. All tested compounds were dissolved in 100% DMSO. PIP2 and ATP were used as substrates, and the final reaction volume was 10 μL. […] After incubating for 1 h at room temperature, the reactions were quenched by adding 10 μL of Kinase-Glo reagent. Raw data were collected from Flexstation program.

K562 = assay: Antiproliferative CCK8 assay, K562; format: cell-based; settings: Homo sapiens, 72 h incubation, average of three replicates, read-out: Relative IC50 against tumor cell line K562
Method: as §1

DU145 = assay: Antiproliferative CCK8 assay, DU145; format: cell-based; settings: Homo sapiens, DU-145, prostate cancer cell, 72 h incubation, average of three replicates, read-out: Relative IC50 against tumor cell line DU145
Method: as §1

PC3 = assay: Antiproliferative CCK8 assay, PC3; format: cell-based; settings: Homo sapiens, PC-3, 72 h incubation, average of three replicates, read-out: Relative IC50 against tumor cell line PC3
Method: as §1

SK-BR-3 = assay: Antiproliferative CCK8 assay, SK-BR-3; format: cell-based; settings: Homo sapiens, 72 h incubation, average of three replicates, read-out: Relative IC50 against tumor cell line SK-BR-3
Method: as §1

U937 = assay: Antiproliferative CCK8 assay, U937; format: cell-based; settings: Homo sapiens, U-937, leukemia cell, 72 h incubation, average of three replicates, read-out: Relative IC50 against tumor cell line U937
Method: as §1

PI3Kδ = PI3Kδ (Homo sapiens, UniProt O00329); assay: PI3K enzymatic activity assay, PI3Kδ; format: biochemical
Method: as §2

PI3Kγ = PI3Kγ (Homo sapiens, UniProt P48736); assay: PI3K enzymatic activity assay, PI3Kγ; format: biochemical
Method: as §2

PI3Kβ = PI3Kβ (Homo sapiens, UniProt P42338); assay: PI3K enzymatic activity assay, PI3Kβ; format: biochemical
Method: as §2

[1] = average of three replicates, 25 μM ATP, 50 μM PIP2, 1 h, room temperature, read-out: IC50, inhibition against PI3Kα

PI3Kα, sequence (P42336 whole entry, species assumed): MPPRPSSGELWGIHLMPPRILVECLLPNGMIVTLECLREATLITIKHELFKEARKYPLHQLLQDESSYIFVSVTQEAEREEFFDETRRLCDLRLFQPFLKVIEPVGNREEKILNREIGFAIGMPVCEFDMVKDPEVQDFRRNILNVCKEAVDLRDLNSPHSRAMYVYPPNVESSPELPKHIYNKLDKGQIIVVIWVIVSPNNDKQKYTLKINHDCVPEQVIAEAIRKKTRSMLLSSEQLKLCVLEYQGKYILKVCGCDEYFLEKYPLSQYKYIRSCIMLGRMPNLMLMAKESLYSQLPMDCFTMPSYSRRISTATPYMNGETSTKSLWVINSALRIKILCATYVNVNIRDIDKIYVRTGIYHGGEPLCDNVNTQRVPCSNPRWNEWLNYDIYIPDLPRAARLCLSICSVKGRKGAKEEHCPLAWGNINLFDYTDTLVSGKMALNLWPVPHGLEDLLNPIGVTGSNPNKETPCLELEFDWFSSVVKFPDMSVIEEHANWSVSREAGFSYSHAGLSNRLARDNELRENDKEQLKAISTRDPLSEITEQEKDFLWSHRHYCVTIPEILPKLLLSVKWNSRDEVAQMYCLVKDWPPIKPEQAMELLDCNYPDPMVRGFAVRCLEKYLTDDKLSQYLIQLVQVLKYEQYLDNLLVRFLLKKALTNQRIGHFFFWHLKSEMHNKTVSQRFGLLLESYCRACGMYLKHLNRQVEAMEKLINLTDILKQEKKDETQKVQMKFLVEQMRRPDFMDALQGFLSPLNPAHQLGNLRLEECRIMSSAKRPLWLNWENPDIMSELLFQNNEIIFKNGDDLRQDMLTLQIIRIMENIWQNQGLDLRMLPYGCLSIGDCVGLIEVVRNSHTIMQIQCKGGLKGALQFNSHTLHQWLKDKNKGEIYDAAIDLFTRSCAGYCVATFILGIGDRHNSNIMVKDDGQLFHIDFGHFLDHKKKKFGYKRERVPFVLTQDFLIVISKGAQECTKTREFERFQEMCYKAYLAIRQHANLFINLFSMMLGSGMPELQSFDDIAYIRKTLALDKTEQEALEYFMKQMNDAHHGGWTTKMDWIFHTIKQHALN
PI3Kα, sequence (P27986 whole entry partner, species assumed): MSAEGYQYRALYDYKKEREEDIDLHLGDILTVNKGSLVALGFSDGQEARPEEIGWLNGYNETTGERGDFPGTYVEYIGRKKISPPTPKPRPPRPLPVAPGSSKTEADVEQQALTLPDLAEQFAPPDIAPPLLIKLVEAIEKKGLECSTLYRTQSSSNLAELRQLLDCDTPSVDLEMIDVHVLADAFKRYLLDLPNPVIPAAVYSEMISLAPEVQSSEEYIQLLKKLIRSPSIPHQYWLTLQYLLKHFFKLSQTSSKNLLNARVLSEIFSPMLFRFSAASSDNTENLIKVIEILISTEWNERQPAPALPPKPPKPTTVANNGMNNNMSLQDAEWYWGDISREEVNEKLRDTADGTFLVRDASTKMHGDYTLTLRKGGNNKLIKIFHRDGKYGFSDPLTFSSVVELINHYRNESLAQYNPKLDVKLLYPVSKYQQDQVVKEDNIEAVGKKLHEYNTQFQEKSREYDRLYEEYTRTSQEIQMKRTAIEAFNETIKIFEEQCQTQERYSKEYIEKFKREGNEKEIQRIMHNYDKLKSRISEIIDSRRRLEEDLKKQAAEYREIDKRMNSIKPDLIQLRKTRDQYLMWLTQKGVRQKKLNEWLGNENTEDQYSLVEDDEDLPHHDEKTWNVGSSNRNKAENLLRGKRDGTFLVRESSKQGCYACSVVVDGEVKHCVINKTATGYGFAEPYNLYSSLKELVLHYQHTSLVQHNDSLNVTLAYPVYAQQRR
PI3Kβ, sequence (P42338 whole entry, species assumed): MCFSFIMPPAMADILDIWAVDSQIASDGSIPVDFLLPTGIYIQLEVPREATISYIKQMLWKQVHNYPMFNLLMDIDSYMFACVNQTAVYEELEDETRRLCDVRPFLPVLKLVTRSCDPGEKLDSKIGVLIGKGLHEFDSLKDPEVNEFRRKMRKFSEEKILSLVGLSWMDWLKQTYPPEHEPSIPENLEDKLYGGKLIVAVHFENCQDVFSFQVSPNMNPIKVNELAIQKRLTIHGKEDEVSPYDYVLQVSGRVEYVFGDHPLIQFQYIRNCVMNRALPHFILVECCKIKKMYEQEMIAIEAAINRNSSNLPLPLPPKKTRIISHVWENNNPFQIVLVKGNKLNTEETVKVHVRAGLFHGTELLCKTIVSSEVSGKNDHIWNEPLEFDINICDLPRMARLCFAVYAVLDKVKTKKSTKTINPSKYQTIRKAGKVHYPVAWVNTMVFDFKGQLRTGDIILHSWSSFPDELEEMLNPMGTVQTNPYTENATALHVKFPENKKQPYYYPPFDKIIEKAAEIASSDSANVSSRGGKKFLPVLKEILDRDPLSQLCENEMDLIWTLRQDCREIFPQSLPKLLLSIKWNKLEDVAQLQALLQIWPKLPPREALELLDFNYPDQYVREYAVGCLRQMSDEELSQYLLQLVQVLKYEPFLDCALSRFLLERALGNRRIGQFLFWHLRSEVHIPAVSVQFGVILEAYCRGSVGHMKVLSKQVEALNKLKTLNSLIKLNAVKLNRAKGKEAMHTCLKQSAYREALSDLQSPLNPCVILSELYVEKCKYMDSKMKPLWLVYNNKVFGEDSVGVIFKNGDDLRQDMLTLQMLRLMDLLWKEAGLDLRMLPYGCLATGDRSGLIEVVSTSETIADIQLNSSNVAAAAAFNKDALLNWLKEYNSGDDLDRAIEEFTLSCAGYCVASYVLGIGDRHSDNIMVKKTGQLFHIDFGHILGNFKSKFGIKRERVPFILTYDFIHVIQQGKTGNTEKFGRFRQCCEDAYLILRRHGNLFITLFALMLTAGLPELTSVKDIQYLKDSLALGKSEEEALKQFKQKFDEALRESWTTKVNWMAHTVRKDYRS
PI3Kβ, sequence (P27986 whole entry partner, species assumed): as the sequence (P27986 whole entry partner, species assumed) above
PI3Kδ, sequence (O00329 whole entry, species assumed): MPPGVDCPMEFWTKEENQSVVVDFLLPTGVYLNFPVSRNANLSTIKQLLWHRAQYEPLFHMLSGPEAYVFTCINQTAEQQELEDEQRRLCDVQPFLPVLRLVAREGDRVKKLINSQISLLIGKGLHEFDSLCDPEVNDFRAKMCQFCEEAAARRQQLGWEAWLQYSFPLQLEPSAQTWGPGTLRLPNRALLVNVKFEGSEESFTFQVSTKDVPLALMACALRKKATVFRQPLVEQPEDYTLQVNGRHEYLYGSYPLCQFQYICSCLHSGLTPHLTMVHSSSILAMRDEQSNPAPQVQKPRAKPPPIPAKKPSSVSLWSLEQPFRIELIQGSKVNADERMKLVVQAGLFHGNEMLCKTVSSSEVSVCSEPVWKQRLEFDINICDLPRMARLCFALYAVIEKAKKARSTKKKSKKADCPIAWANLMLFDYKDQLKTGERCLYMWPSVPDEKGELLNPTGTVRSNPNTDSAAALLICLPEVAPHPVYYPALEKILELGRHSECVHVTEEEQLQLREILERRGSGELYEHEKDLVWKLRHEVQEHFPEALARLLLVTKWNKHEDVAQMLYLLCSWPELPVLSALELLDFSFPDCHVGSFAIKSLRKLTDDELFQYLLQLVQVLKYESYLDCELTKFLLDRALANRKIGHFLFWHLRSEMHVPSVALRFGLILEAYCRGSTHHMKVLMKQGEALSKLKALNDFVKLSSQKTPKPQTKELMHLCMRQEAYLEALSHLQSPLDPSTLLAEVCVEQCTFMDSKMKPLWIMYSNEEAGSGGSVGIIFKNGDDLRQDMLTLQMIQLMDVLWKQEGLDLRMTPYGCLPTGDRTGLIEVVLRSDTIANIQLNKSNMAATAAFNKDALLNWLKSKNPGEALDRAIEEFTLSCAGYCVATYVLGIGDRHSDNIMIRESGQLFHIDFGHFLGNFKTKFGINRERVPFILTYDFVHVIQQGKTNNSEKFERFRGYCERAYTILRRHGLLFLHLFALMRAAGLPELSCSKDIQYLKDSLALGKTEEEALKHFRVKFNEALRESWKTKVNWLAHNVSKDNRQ
PI3Kδ, sequence (P27986 whole entry partner, species assumed): as the sequence (P27986 whole entry partner, species assumed) above
PI3Kγ, sequence (P48736 whole entry, species assumed): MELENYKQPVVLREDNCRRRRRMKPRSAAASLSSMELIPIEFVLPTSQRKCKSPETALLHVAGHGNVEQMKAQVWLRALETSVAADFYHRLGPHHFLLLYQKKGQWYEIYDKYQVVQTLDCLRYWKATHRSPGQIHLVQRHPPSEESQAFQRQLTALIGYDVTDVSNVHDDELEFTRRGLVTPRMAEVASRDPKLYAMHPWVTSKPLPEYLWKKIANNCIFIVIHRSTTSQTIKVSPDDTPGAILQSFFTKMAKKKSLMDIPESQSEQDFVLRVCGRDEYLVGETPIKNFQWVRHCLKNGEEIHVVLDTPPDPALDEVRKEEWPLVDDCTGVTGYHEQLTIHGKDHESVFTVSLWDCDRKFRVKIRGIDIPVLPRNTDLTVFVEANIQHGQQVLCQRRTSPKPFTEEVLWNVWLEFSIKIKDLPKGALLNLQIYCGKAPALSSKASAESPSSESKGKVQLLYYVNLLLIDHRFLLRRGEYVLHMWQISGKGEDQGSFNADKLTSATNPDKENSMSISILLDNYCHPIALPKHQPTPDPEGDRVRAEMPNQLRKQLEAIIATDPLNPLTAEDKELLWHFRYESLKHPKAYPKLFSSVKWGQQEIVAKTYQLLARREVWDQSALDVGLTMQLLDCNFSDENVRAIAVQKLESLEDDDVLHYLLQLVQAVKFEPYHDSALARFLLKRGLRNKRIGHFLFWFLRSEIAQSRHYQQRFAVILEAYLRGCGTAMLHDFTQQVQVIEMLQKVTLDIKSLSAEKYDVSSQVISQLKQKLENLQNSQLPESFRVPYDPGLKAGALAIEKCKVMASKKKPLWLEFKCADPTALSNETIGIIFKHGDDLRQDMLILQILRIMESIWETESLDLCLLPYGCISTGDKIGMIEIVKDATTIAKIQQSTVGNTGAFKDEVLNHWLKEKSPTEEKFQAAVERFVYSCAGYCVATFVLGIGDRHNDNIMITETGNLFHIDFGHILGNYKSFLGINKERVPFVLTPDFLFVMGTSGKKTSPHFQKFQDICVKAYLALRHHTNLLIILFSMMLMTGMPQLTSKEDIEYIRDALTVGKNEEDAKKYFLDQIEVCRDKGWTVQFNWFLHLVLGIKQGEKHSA

| Structure (SMILES) | IC50 (MCF-7) | IC50 (Hela) | IC50 (MOLT-4) | IC50 (PI3Kα; [1]) | IC50 (K562) | IC50 (DU145) | IC50 (PC3) | IC50 (SK-BR-3) | IC50 (U937) | IC50 (PI3Kδ) | IC50 (PI3Kγ) | IC50 (PI3Kβ) | IC50 (PI3Kα) |
| --- | --- | --- | --- | --- | --- | --- | --- | --- | --- | --- | --- | --- | --- |
| CC1(C)CCC[C@]2(C)[C@H]3Cc4c(O)c(O)cc(C#N)c4[C@]3(C)CC[C@@H]12 [Compound 6, (4aS,6aR,11aR,11bS)-9,10-diHydroxy-4,4,6a,11b-tetramethyl-2,3,4,4a,5,6,6a,11,11a,11b-decahydro-1H-benzo[a]fluorene-7-carbonitrile] | 16.5 µM | 12.1 µM | 2.89 µM | 49.5 µM | > 30 µM | 8.13 µM | > 30 µM | > 30 µM | 12.8 µM | – | – | – | – |
| CC1(C)CCC[C@]2(C)[C@H]3Cc4c(O)c(O)cc(C=O)c4[C@]3(C)CC[C@@H]12 [Compound 5, (4aS,6aR,11aR,11bS)-9,10-diHydroxy-4,4,6a,11b-tetramethyl-2,3,4,4a,5,6,6a,11,11a,11b-decahydro-1H-benzo[a]fluorene-7-carbaldehyde] | 38.9 µM | 13.2 µM | 4.27 µM | 5.06 µM | 16.1 µM | 9.01 µM | 18.4 µM | 19.1 µM | 5.99 µM | > 100 µM | > 100 µM | 8.9 µM | – |
| CCc1cc(OC)c(OC)c2c1[C@]1(C)CC[C@H]3C(C)(C)CCC[C@]3(C)[C@H]1C2 [Compound 20, (4aS,6aR,11aR,11bS)-7-Ethyl-9,10-diMethoxy-4,4,6a,11b-tetramethyl-2,3,4,4a,5,6,6a,11,11a,11b-decahydro-1H-benzo[a]fluorene] | – | – | – | > 100 µM | – | – | – | – | – | – | – | – | – |
| CCc1cc(O)c(O)c2c1[C@]1(C)CC[C@H]3C(C)(C)CCC[C@]3(C)[C@H]1C2 [Compound 4, (4aS,6aR,11aR,11bS)-7-Ethyl-4,4,6a,11b-tetramethyl-2,3,4,4a,5,6,6a,11,11a,11b-decahydro-1H-benzo [a]fluorene-9,10-diol] | > 30 µM | > 30 µM | > 30 µM | 83.7 µM | > 30 µM | > 30 µM | > 30 µM | > 30 µM | > 30 µM | – | – | – | – |
| CC(=O)c1cc(O)c(O)c2c1[C@]1(C)CC[C@H]3C(C)(C)CCC[C@]3(C)[C@H]1C2 [Compound 3, 1-((4aS,6aR,11aR,11bS)-9,10-diHydroxy-4,4,6a,11b-tetramethyl-2,3,4,4a,5,6,6a,11,11a,11b-decahydro-1H-benzo[a]fluoren-7-yl)ethanone] | > 30 µM | > 30 µM | 22.3 µM | 8.76 µM | > 30 µM | > 30 µM | > 30 µM | > 30 µM | > 30 µM | – | – | – | – |
| COC(=O)c1cc(O)c(O)c2c1[C@]1(C)CC[C@H]3C(C)(C)CCC[C@]3(C)[C@H]1C2 [Compound 1, Pelorol] | > 30 µM | > 30 µM | > 30 µM | – | > 30 µM | 72.7 µM | > 30 µM | > 30 µM | > 30 µM | – | – | – | 38.2 µM |
| CC1(C)CCC[C@]2(C)[C@H]3Cc4c(O)c(O)cc(C(=O)O)c4[C@]3(C)CC[C@@H]12 [Compound 2, (4aS,6aR,11aR,11bS)-9,10-diHydroxy-4,4,6a,11b-tetramethyl-2,3,4,4a,5,6,6a,11,11a,11b-decahydro-1H-benzo[a]fluorene-7-carboxylic acid] | > 30 µM | – | – | 20.7 µM | > 30 µM | > 30 µM | > 30 µM | – | – | – | – | – | – |
